Laboratory results taken from US20250009791A1, “METHOD FOR PREVENTION AND REDUCTION OF SKIN STASIS WITH COMPOSITIONS AND MATERIALS COMPRISING COPPER COMPOUNDS” (MEDCU TECHNOLOGIES LTD., priority 2018, published 2025).
“Also recorded” adds a separate entry of the source.

Legend:
[1] = test system: burn wounds on human skin explants (zone of stasis); experiment: Burn wound area measurement in ex-vivo human skin explant burn model; type: cell-based; settings: for size of the wounds compared with wounds treated with saline only: 0.02 μM copper ions
Method: Human skin was obtained from healthy donors undergoing abdominal dermolipectomy after receiving informed consent. A 0.5 mm split-thickness skin graft was harvested using a dermatome (Aesculap AG & Co. KG, Tuttlingen, Germany) and was cut into 1 cm^2 pieces. Round burn wounds of with a diameter of […] were inflicted in the 0.7 cm^2 skin pieces by exposure to a soldering iron (95° C., 2 Sec). Triplicate pieces were kept intact as naïve controls. The injured and intact skin samples were placed dermis down on a stainless-steel grid and cultured at the air-liquid interface at 37° C. with 5% CO2 in Dulbecco's Modified Eagle's Medium (DMEM), 10% fetal calf serum (Biological Industries, Beit Ha′emek, Israel), and penicillin/streptomycin (100 IU/mL penicillin, […] streptomycin; Invitrogen). Culture medium was refreshed twice a week. The explants were cultured up to 27 days after wounding. Each individual experiment was performed with skin explants obtained from the same individual and the experiments were repeated at least three times. Reference is now made to FIGS. 1a and 1b schematically showing a side view and a top view, respectively, of this ex-vivo explant model. The skin explants are placed dermis down on a stainless-steel grid. Culture media is added to the bottom of the well, without reaching the epidermal layer, which is exposed to the air. […] From the stock solutions, solutions of 0.02 μM or 1 μM of copper ions were prepared in saline. […] Each control and treatment were performed in at least three replicate explants. Skin was obtained from 35-65-year-old healthy patients undergoing abdominoplasty surgery. The patient's under general anesthesia, went standard or circumferential abdominoplasty. After excision of the excess skin, the subcutaneous fat was removed using sterile technique. The defatted full-thickness skin was submerged in culture medium and transferred to the laboratory. The skin was cut into 8×8 mm squares by costume made apparatus. Round 0.8 mm diameter burn wounds were inflicted on the skin explants by exposure to a soldering iron (200° C., 10 Sec). The injured (burnt) and control intact skin samples were placed dermis down and kept at the air-liquid interface at 37° C. with 5% CO2 in Dulbecco's Modified Eagle's Medium supplemented with 100 IU/mL penicillin and […] streptomycin and 10% serum (Biological Industries, Beit Ha′emek, Israel). Culture medium was refreshed every 48 hours, i.e. immediately following injury and then again, every 48 hours, saline only or containing 0.02 μM or 1 μM copper ions were added onto the skin explant burn wounds. The explants were cultured up to 27 days after wounding. Pictures of burns were captured using Motic® Moticam 5+ camera at designated time points. Wound area was measured using ImageJ software suit. […]

[2] = test system: epidermis of human skin explants; experiment: MTT viability assay of the epidermis of skin explants; type: cell-based; settings: 0.02 μM or 1 μM copper ions
Method: To assess the cell viability throughout the culture period a 3-(4,5-dimethylthiazol-2-yl)-2,5-diphenyltetrazolium bromide (MTT) assay was performed at different days after wounding as follows:
To assess the cell viability throughout the culture period a 3-(4,5-dimethylthiazol-2-yl)-2,5-diphenyltetrazolium bromide (MTT) assay was performed 1, 3, 5, 10, 14, 21 and 27 days, following wounding, as follows: skin explants were incubated for 60 sec in pre-warmed PBS (56° C.). Then the epidermis layer of each replicate was separated from the dermis by grabbing the tissue edge with tweezers and peeling the epidermis off using a scalpel. Epidermal pieces were transferred to 96 well-plate, each well contains 150 μl MTT (Sigma, 0.5 mg/ml) and incubated for 1 hour at 37° C. and reduced light conditions. Then, the epidermis pieces were transferred to a new 96 well-plate containing 150 μl of isopropanol. Plates were placed for 5 min, 200 rpm in a plate shaker (MRC, Beijing, China). Following incubation, epidermis sections were removed, and absorbance was measured at 570 nm in Tecan plate reader (Tecan Group Ltd. Switzerland).

[3] = test system: IL-6; experiment: IL-6 secretion into spent medium by ELISA; type: cell-based, human
Method: During harvesting time points, the spent medium from all Test Groups was collected and centrifuged at 1500×g for 5 minutes to remove particulates. Media were kept at −80° C. until use. The secretion levels of IL-6, IL-8 and TGF-β were measured by commercial Enzyme-Linked Immunosorbent Assay (ELISA) kits according to manufacturer instructions (Biolegend, San Diego, CA). Briefly, plates were coated for 24 hours prior to assay with a specific anti-human capture antibody. At the day of the assay, coated plates were incubated with samples, followed by washes for unbound molecules. Then additional detection antibody was added and detected by Avidin-HRP solution. Finally, wells were incubated with a substrate solution, while absorbance was measured at 570 nm. In order to further understand how addition of copper ions affected the skin explants, the amounts of Interleukin 6 (IL-6), Interleukin 8 (IL-8) and transforming growth factor beta (TGF-β) found in the medium of the various treated explants were determined. FIGS. 3a, 3c and 3e show the cytokine expression in burn-induced inflammation in human ex vivo skin and comparison between the IL-6, IL-8 and TGF-β secretion by the untreated skin explants (Naïve Controls) and the wounded skin explants (Burn Controls) following wounding. […]

[4] = test system: IL-8; experiment: IL-8 secretion into spent medium by ELISA; type: cell-based, human
Method: (§1) During harvesting time points, the spent medium from all Test Groups was collected and centrifuged at 1500×g for 5 minutes to remove particulates. Media were kept at −80° C. until use. The secretion levels of IL-6, IL-8 and TGF-β were measured by commercial Enzyme-Linked Immunosorbent Assay (ELISA) kits according to manufacturer instructions (Biolegend, San Diego, CA). Briefly, plates were coated for 24 hours prior to assay with a specific anti-human capture antibody. At the day of the assay, coated plates were incubated with samples, followed by washes for unbound molecules. Then additional detection antibody was added and detected by Avidin-HRP solution. Finally, wells were incubated with a substrate solution, while absorbance was measured at 570 nm.
In order to further understand how addition of copper ions affected the skin explants, the amounts of Interleukin 6 (IL-6), Interleukin 8 (IL-8) and transforming growth factor beta (TGF-β) found in the medium of the various treated explants were determined. FIGS. 3a, 3c and 3e show the cytokine expression in burn-induced inflammation in human ex vivo skin and comparison between the IL-6, IL-8 and TGF-β secretion by the untreated skin explants (Naïve Controls) and the wounded skin explants (Burn Controls) following wounding. […]

[5] = test system: TGF-β; experiment: TGF-β secretion into spent medium by ELISA; type: cell-based, human
Method: as §1
In order to further understand how addition of copper ions affected the skin explants, the amounts of Interleukin 6 (IL-6), Interleukin 8 (IL-8) and transforming growth factor beta (TGF-β) found in the medium of the various treated explants were determined. FIGS. 3a, 3c and 3e show the cytokine expression in burn-induced inflammation in human ex vivo skin and comparison between the IL-6, IL-8 and TGF-β secretion by the untreated skin explants (Naïve Controls) and the wounded skin explants (Burn Controls) following wounding. In these figures, the p values of a t-test between the cytokine expressions per a particular day following wounding are shown. Measurements were normalized to amount of cytokine secreted from normal skin and are presented as percent of Naïve control.
Reference is also made to FIGS. 3b, 3d and 3f showing the effect of addition of copper ions (0.02 μM or 1 μM) on secretion of IL-6, IL-8 and TGF-β, respectively, as compared to Naïve Controls and Burn Controls on Day 4 (treated with saline only) (FIGS. 3b and 3d) and on Day 6 (FIG. 3f) after wounding. In the graphs, the star sign “*” indicates the statistically significant difference as compared to the Naïve Controls, while the net sign “#” indicates the statistically significant difference as compared to the untreated (treated with saline only) Burn Controls.

[6] = test system: burned human skin explants; experiment: Histology of skin explants (H&E, Masson's trichrome); type: cell-based
Method: At indicated harvesting time points, skin explants were fixed with 4% formaldehyde for 1 hour at room temperature. Then, the samples were washed twice with PBS and kept at 70% ethanol at 2-8° C. until use. Following dehydration in gradual increasing concentrations of ethanol and embedment, paraffin sections (8 μm) were prepared, pasted on slides and either stained with haematoxylin and eosin (H&E) or Masson trichrome stain, according to the manufacturer specification (Sigma-Aldrich) followed by mounting with DPX mountant (Sigma, Israel).
Examination of tissue formation was performed on day 12 and 27. Sections of Normal and Burned skin, treated or not with copper ions were stained with H&E and Masson's trichrome staining respectively. FIGS. 6a-6c show full length images of sections stained with H&E.

[7] = test system: Ki67 stained cells in burned human skin explants; experiment: Ki67 immunostaining of proliferating keratinocytes at the re-epithelisation area; type: cell-based; settings: FIG. 7
Method: Immunostaining with Rabbit-anti Ki67 (Abcam, UK) was performed following rehydration, blocking in 2% BSA in PBS for 20 mins, for 2 hours, followed by exposure to Goat Anti-Rabbit IgG H&L (HRP) for one hour and detection by DAB substrate (Abcam, UK). Washes were then performed in 0.025% Tween/PBS. Counterstain was performed with haematoxylin (Sigma, Israel). Images were captured using Zeiss® PrimoVert microscope connected to Motic® Moticam 5+ camera.

`[Cu+]` [copper ions] was tested, and the “size of the wounds compared with wounds treated with saline only” value ([1]; 5 and 10 days following wounding) was “similarly smaller wounds”, the “size of the wounds compared with wounds treated with saline only” value ([1]; three days following wounding) was “statistically smaller than the wounds which are treated with saline only” and the “burn size at the end of the experiment” value ([1]; end of the experiment) was “not massively improved”. For the same molecule, the “increase in burn size that occurs after the initial damage” value ([1]; topical application of the ions) was “prevented the increase in burn size”, the “viability of burned skin explants compared with untreated pieces” value ([2]; 5 days after burn, differences not statistically significant) was “a trend of increased viability” and the “viability of burned skin explants compared with untreated pieces” value ([2]; after 1 day) was “remained similar to the untreated pieces”. For the same molecule, the “levels of IL-6” value ([3]; Day 1 following the burn) was “dramatically elevated in the Burn Controls but not in the copper ion treated samples”, the “IL-6 levels compared with Burn Control samples” value ([3]; after Day 4) was “no significant differences in IL-6 levels” and the “burn-induced increase of IL-8 compared with Burn Controls” value ([4]; 0.02 μM or 1 μM copper ions from both copper sources, Day 4 (FIG. 3d)) was “significantly lower; also recorded: significantly attenuated or abolished”. The “amount of IL-8 secreted compared with Burn control samples” value ([4]; Day 1) was “did not differ significantly”, the “burn-induced increase of TGF-β compared with Burn Controls” value ([5]; 0.02 μM or 1 μM copper ions from both copper sources, Day 4 (FIG. 3f)) was “dramatically inhibited; also recorded: significantly attenuated or abolished; also recorded: significantly inhibited” and the TGF-β level ([5]; Day 6 and onwards) was “returning to normal levels”. For the same molecule, the “TGF-β secretion compared with Burn control samples” value ([5]; other examined days) was “no statistically significant differences”, the “re-epithelisation (epithelia regeneration)” value ([6]; 0.02 μM and 1 μM copper ions, 12 days, H&E, vs Burn Control) was “Beginning of epithelia regeneration (grey arrows) is seen; also recorded: newly formed epithelia” and the “detachment of the epidermal tissue from the dermis” value ([6]; 0.02 μM or 1 μM copper ions, day 12, H&E, FIGS. 6b and 6c) was “less detached of the epidermal tissue from the dermis”. For the same molecule, the re-epithelisation ([6]; Day 27, Masson's trichrome, FIG. 4c, vs control samples) was “clear re-epithelisation occurred”, the “collagen stain / amount of collagen fibers in the dermal layer” value ([6]; Day 27, Masson's trichrome, FIG. 4c, vs saline-treated control) was “an increase in the amount of collagen fibers; also recorded: greater collagen stain” and the “amount of Ki67 stained cells compared to control” value ([7]; 0.02 μM copper ions) was “significantly higher amount of Ki67 stained cells”. The “newly proliferating cells stained with Ki67” value ([7]; skin pieces fixed after 12 days) was “significantly more common”.
